Measurements from patent US20240147994A1, “ENHANCED YEASTICIDAL EFFICACY OF LACTIC ACID BASED ANTIMICROBIAL HANDWASH” (ECOLAB USA INC., priority 2022, published 2024).
“And” between values parts separate entries of the source, which are not always exact repeats. Equal entries are not always repeated.

Tested on: Modified Vaccinia Virus, strain Ankara (MVA)
Format: cell-based
Conditions: reference inactivation (LVP-Method)

C=O [0.7% (w/v) formaldehyde solution, formaldehyde]
Reduction factor [lg] ± 95.0% confidence interval, 5 min: 1.70 lg and 1.87 lg and 1.53 lg | Reduction factor [lg] ± 95.0% confidence interval, 15 min: 3.14 lg and 2.96 lg and 2.73 lg | lg-TCID50/ml after 5 min: 4.93 lg-TCID50/ml and 4.88 lg-TCID50/ml and 4.85 lg-TCID50/ml | lg-TCID50/ml after 15 min: 3.49 lg-TCID50/ml and 3.79 lg-TCID50/ml and 3.65 lg-TCID50/ml
